Measured values: patent US20110178118A1, “PALONOSETRON FOR THE TREATMENT OF CHEMOTHERAPY INDUCED EMESES” (priority 2002, published 2011)

System: cisplatin-induced emesis
Assay: Duration of action in cisplatin-treated dogs
Assay type: in vivo
Settings: 0.04 mg/kg IV
Procedure: Mean numbers of episodes were computed and the statistical significance of differences between treatment groups were determined with Dunnett's t test. Solutions of palonosetron and comparator drugs (ondansetron and granisetron) were prepared in distilled water. Vehicle control groups received distilled water.

SMILES: CN1C2CCCC1CC(NC(=O)c1nn(C)c3ccccc13)C2 (centres unmarked) [Granisetron]
- antiemetic effect in duration of action experiments (1 to 12 hours before cisplatin): without antiemetic effect
- Emetic Episodes (mean ± SD) (1 hr pre-cisplatin 3.0 mg/kg IV): 12.33 ± 4.32
- Emetic Episodes (mean ± SD) (2 hr pre-cisplatin 3.0 mg/kg IV): 9.67 ± 4.46
- Emetic Episodes (mean ± SD) (4 hr pre-cisplatin 3.0 mg/kg IV): 13.83 ± 7.25
- Emetic Episodes (mean ± SD) (6 hr pre-cisplatin 3.0 mg/kg IV): 21.33 ± 9.54
- Emetic Episodes (mean ± SD) (8 hr pre-cisplatin 3.0 mg/kg IV): 14.67 ± 8.69
- Emetic Episodes (mean ± SD) (10 hr pre-cisplatin 3.0 mg/kg IV): 23.00 ± 5.87
- Emetic Episodes (mean ± SD) (12 hr pre-cisplatin 3.0 mg/kg IV): 15.67 ± 6.28
